This is an account of results in patent publication US20150111852A1, “1-Di(sec-butyl)-phosphinoyl-pentane (dapa-2-5) as a topical agent” (priority 2013, published 2015).

One test has as its system oropharynx. As to the kind of experiment: Sensory effects and cold discomfort of compounds given orally in ODT (general evaluation). Type of test: in vivo, human. Conditions: menthol at a dose of 2 mg in an ODT; icilin dose not given. Here is the method: The correlation between a chemical's potency at the TRPM8 receptor (measured by the EC50 μM) and potency to evoke sensory events in the oropharynx is complex.
When a test compound is applied to non-keratinizng bodily surfaces (e.g., oropharyngeal surface), it is possible to characterize the resulting sensations.
The sensations are akin to rapid drinking of cold water mixed and equilibrated with ice chips. The intense cold is further accentuated if the drink is acidified, for example, with lemonade. The sensations of dull and intense cold on the surface of the oropharynx can be described as painful, uncomfortable, and aversive. The term “icy cold” is used to describe these adverse intense cold sensations.
Together, these three types of sensations—“icy cold”, coldness in the chest, and systemic coldness—is termed “cold discomfort”. […] The ideal agent must have a circumscribed site of action, and the intensity of the sensation should not cause “icy cold”, coldness in the chest, or systemic chills.

In test [1] the test system is dorsal surface of the tongue. As to conditions: 6 subjects, filter paper 1×1 cm, 30 sec; cited from earlier work.
In test [2] the target is T1, cloned hTRPM8 channel (encoded by the human TRPM8 gene, expressed in CHO cells) (Homo sapiens, UniProt Q7Z2W7).
T1 construct: host or cells: CHO cells, stably transfected
T1 sequence (Q7Z2W7 whole entry): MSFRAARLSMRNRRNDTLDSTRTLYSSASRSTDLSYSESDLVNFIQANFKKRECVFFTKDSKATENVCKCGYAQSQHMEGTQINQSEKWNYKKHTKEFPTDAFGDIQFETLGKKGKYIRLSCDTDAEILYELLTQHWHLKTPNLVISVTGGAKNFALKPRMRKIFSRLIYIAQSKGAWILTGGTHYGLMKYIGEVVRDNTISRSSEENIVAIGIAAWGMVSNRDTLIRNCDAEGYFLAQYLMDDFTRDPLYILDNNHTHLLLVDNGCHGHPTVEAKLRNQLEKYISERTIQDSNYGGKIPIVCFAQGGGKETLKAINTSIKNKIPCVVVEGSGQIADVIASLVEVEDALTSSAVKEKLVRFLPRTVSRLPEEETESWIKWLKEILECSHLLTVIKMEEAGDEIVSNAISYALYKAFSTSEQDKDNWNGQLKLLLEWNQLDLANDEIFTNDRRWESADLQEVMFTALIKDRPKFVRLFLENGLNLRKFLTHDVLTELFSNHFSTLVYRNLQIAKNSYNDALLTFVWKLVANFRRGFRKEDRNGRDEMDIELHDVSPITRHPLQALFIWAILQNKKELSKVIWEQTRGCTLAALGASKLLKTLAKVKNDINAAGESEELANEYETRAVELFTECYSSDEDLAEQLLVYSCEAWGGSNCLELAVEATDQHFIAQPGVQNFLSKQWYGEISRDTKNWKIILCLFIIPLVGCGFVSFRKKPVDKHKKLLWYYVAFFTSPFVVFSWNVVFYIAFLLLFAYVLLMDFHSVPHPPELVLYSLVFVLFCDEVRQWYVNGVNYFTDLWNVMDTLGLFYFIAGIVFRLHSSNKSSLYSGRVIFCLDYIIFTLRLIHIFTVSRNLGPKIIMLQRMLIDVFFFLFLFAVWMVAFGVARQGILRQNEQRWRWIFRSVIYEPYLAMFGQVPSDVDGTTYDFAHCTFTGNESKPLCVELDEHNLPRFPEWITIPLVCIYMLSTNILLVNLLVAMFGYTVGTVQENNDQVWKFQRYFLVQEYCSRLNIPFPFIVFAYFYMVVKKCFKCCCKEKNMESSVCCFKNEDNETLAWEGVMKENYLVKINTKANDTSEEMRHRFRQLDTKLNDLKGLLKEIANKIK
As to the kind of experiment: TRPM8 agonist FLIPR Fluo-8 calcium assay. Type of test: cell-based. On the procedure: The in vitro effects of test compounds were evaluated on cloned hTRPM8 channel (encoded by the human TRPM8 gene, expressed in CHO cells) using a Fluo-8 calcium kit and a Fluorescence Imaging Plate Reader (FLIPR^TETRA™) instrument.
Test compounds and positive control solutions were prepared by diluting stock solutions in a HEPES-buffered physiological saline (HBPS) solution. The test compound and control formulations were loaded in polypropylene or glass-lined 384-well plates, and placed into the FLIPR instrument (Molecular Devices Corporation, Union City, Calif., USA). The test compounds were evaluated at 4 or 8 concentrations with n=4 replicates per determination. […] The test cells were Chinese Hamster Ovary (CHO) cells stably transfected with human TRPM8 cDNAs.
For the FLIPR^TETRA™ assay, cells were plated in 384-well black wall, flat clear-bottom microtiter plates (Type: BD Biocoat Poly-D-Lysine Multiwell Cell Culture Plate) at approximately 30,000 cells per well. Cells were incubated at 37° C. overnight to reach a near confluent monolayer appropriate for use in a fluorescence assay. The test procedure was to remove the growth media and to add 40 μL of HBPS containing Fluo-8 for 30 min at 37° C. 10 μL of test compound, vehicle, or control solutions in HBPS were added to each well and read for 4 min.
Concentration-response data were analyzed via the FLIPR Control software that is supplied with the FLIPR System (MDS-AT) and fitted to a Hill equation of the following form: […]
where: “Base” is the response at low concentrations of test compound; “Max” is the maximum response at high concentrations; “xhalf” is the EC50, the concentration of test compound producing half-maximal activation; and “rate” is the Hill coefficient. Nonlinear least squares fits were made assuming a simple one-to-one binding model.

Test [3] deals with T2, hNav1.7 (sodium channels) (Homo sapiens, UniProt Q15858).
T2 construct: expressed in transfected cells
T2 sequence (Q15858 whole entry): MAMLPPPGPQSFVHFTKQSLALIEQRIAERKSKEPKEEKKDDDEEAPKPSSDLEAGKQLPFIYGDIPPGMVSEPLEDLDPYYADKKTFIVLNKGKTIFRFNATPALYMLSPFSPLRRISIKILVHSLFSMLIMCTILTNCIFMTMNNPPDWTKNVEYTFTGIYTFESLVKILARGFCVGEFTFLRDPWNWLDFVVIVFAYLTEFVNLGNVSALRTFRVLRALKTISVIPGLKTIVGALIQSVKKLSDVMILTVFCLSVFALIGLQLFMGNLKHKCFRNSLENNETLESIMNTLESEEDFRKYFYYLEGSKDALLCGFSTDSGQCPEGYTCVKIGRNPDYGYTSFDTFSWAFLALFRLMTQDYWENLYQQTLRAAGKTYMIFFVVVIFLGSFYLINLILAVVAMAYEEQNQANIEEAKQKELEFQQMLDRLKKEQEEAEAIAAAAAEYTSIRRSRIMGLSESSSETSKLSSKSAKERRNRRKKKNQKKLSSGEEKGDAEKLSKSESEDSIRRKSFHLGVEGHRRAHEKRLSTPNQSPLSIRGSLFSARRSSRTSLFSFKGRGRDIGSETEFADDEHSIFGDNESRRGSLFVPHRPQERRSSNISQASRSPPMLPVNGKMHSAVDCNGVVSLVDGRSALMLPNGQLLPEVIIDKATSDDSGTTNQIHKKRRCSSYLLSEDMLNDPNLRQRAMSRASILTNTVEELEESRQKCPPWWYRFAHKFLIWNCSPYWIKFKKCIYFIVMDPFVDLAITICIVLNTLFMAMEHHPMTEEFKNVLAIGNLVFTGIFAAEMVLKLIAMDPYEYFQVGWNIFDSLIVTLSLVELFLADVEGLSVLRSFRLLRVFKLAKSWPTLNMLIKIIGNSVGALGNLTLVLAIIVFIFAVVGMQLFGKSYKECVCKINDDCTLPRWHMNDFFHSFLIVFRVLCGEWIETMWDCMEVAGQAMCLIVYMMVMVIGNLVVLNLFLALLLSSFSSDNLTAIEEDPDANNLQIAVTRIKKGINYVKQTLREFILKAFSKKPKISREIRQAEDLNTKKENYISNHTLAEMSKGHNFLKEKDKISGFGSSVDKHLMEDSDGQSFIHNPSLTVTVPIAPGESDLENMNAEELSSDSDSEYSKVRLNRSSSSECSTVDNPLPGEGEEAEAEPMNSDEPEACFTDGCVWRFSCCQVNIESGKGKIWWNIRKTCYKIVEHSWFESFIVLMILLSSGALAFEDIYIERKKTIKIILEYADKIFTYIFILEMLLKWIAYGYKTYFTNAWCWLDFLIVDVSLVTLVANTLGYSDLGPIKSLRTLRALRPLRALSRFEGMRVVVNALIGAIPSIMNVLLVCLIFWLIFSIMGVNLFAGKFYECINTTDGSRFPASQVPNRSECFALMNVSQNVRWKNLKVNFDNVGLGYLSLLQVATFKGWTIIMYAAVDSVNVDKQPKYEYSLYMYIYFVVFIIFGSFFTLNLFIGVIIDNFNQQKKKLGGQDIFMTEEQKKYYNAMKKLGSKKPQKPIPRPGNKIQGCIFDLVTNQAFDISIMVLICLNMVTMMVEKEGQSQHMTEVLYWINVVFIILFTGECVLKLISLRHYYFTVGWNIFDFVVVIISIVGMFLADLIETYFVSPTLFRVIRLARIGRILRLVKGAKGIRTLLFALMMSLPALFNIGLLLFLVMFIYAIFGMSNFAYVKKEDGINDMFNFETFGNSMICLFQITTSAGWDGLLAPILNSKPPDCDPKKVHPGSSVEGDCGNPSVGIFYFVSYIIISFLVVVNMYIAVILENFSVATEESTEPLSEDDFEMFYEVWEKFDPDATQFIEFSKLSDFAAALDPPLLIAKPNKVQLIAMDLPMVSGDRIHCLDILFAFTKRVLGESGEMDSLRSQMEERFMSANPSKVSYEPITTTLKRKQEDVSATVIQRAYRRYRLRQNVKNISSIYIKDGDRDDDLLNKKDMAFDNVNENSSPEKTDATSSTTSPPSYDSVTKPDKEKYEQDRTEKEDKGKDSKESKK
Description: Patch-clamp in transfected cells, hNav1.7. It counts as cell-based. As to conditions: DAPA-2-5 at 5 μM; positive control lidocaine.

The structures appear in SMILES notation.

As for `CC(C)[C@@H]1CC[C@@H](C)C[C@H]1O` [Menthol, L-menthol, reference compound], the “sensory effects / side-effects in an ODT” value in the test on oropharynx is given as “produced chest discomfort”. For the same molecule, the “average threshold for cooling on the tongue” value in test [1] was 0.25 µg. Besides, the “rank in TRPM8 potency among the 21 compounds tested” value in test [2] is 16.
Turning to `CCN(CC)CC(=O)Nc1c(C)cccc1C` [lidocaine, reference compound], in test [3], the “agonist or antagonist activity, hNav1.7” value is on record as “active”.
